Laboratory results published in patent US11779585B2 (priority 2020, dated 2023).
“And” between values parts separate entries of the source, which are not always exact repeats. Identical values can stand only once. Like-named read-outs stand apart in the source and are kept apart here.

Tests used:
SARS-CoV2 = assay: microbe, parasite or virus in culture; format: cell-based, SARS-CoV-2
Vero E6 cells = details: hydrochloride
MERS-CoV = details: Dyall et al.; cited from earlier work
SARS-CoV = details: Dyall et al.; cited from earlier work
2019-nCoV = details: Wang et al., not in Table 7; cited from earlier work
[1] = Severe acute respiratory syndrome coronavirus 2, Vero C1008

Cl.NC(=O)c1cn([C@@H]2O[C@H](CO)[C@@H](O)[C@H]2O)c2ncnc(N)c12 [Oya2, 4-amino-7-((2R,3R,4S,5R)-3,4-dihydroxy-5-(hydroxymethyl)tetrahydrofuran-2-yl)-7H-pyrrolo[2,3-d]pyrimidine-5-carboxamide hydrochloride]
Inhibition (SARS-CoV2; 0.0047 μM, MOI 0.6, Plate 2, hydrochloride): 6.759% and 2.316% | Inhibition (SARS-CoV2; 0.0047 μM, title MOI 0.6 (text MOI 1.3), Plate 1, hydrochloride): −4.548% and −2.306% and −5.003% | Inhibition (SARS-CoV2; 0.0047 μM, title MOI 0.6 (text MOI 1.3), Plate 2, hydrochloride): −12.4801% and −9.091% | Inhibition (SARS-CoV2; 0.0094 μM, MOI 0.6, Plate 2, hydrochloride): 22.21% | Inhibition (SARS-CoV2; 0.0094 μM, title MOI 0.6 (text MOI 1.3), Plate 2, hydrochloride): −4.5066% and −0.5728% and 3.754% | Inhibition (SARS-CoV2; 0.0188 μM, MOI 0.6, Plate 2, hydrochloride): 9.743% and 4.635% | Inhibition (SARS-CoV2; 0.0188 μM, title MOI 0.6 (text MOI 1.3), Plate 1, hydrochloride): 1.888% and −0.5178% and 4.439% | Inhibition (SARS-CoV2; 0.0375 μM, MOI 0.6, Plate 1, hydrochloride): 12.21% and 2.813% and 5.217% | Inhibition (SARS-CoV2; 0.0375 μM, MOI 0.6, Plate 2, hydrochloride): −1.2509% and −10.9963% | Inhibition (SARS-CoV2; 0.0375 μM, title MOI 0.6 (text MOI 1.3), Plate 2, hydrochloride): 9.292% and 6.13% | Inhibition (SARS-CoV2; 0.075 μM, MOI 0.6, Plate 1, hydrochloride): 48.8% and 30.54% | Inhibition (SARS-CoV2; 0.075 μM, MOI 0.6, Plate 2, hydrochloride): 77.73% | Inhibition (SARS-CoV2; 0.15 μM, MOI 0.6, Plate 1, hydrochloride): 94.81% and 98.18% | Inhibition (SARS-CoV2; 0.15 μM, MOI 0.6, Plate 2, hydrochloride): 99.76% | Inhibition (SARS-CoV2; 0.15 μM, title MOI 0.6 (text MOI 1.3), Plate 1, hydrochloride): 100.5487% and 99.6% | Inhibition (SARS-CoV2; 0.15 μM, title MOI 0.6 (text MOI 1.3), Plate 2, hydrochloride): 95.57% and 98.32% | Inhibition (SARS-CoV2; 0.3 μM, MOI 0.6, Plate 1, hydrochloride): 99.8055% | Inhibition (SARS-CoV2; 0.3 μM, MOI 0.6, Plate 2, hydrochloride): 99.76% | Inhibition (SARS-CoV2; 0.3 μM, title MOI 0.6 (text MOI 1.3), Plate 1, hydrochloride): 99.49% | Inhibition (SARS-CoV2; 0.3 μM, title MOI 0.6 (text MOI 1.3), Plate 2, hydrochloride): 97.81% | Inhibition (SARS-CoV2; 0.6 μM, MOI 0.6, Plate 1, hydrochloride): 99.76% | Inhibition (SARS-CoV2; 0.6 μM, MOI 0.6, Plate 2, hydrochloride): 100.0302% | Cytotoxicity (Vero E6 cells; 0.0047 μM, MOI 0.6, Plate 1): −2.54% and −1.465% and −2.751% | Cytotoxicity (Vero E6 cells; 0.0047 μM, MOI 0.6, Plate 2): −2.54% and −1.465% and −2.751% | Cytotoxicity (Vero E6 cells; 0.0094 μM, MOI 0.6, Plate 1): 0.4496% and −3.731% and −1.047% | Cytotoxicity (Vero E6 cells; 0.0094 μM, MOI 0.6, Plate 2): 0.4496% and −3.731% and −1.047% | Cytotoxicity (Vero E6 cells; 0.0188 μM, MOI 0.6, Plate 1): −1.946% and −1.045% and −1.4651% | Cytotoxicity (Vero E6 cells; 0.0188 μM, MOI 0.6, Plate 2): −1.946% and −1.045% and −1.4651% | Cytotoxicity (Vero E6 cells; 0.075 μM, MOI 0.6, Plate 1): 16.08% and 19.63% and 18.13% | Cytotoxicity (Vero E6 cells; 0.075 μM, MOI 0.6, Plate 2): 16.08% and 19.63% and 18.13% | Cytotoxicity (Vero E6 cells; 0.15 μM, MOI 0.6, Plate 1): 35.37% and 35.25% and 31.56% | Cytotoxicity (Vero E6 cells; 0.15 μM, MOI 0.6, Plate 2): 35.37% and 35.25% and 31.56% | Cytotoxicity (Vero E6 cells; 0.3 μM, MOI 0.6, Plate 1): 55.54% and 56.53% and 57.44% | Cytotoxicity (Vero E6 cells; 0.3 μM, MOI 0.6, Plate 2): 55.54% and 56.53% and 57.44% | Cytotoxicity (Vero E6 cells; 0.6 μM, MOI 0.6, Plate 1): 69.74% and 68.71% and 69.51% | Cytotoxicity (Vero E6 cells; 0.6 μM, MOI 0.6, Plate 2): 69.74% and 68.71% and 69.51%

CN(C)CCCN1c2ccccc2Sc2ccc(Cl)cc21.Cl [Chlorpromazine HCl, chlorpromazine HCl, reference compound]
Inhibition (SARS-CoV2; 30 µM, HCl): 100.2% | Inhibition (SARS-CoV2; 60 µM, HCl): 100.2% | IC50 (SARS-CoV2; [1]): 7.2 µM | inhibition at 30 µM (SARS-CoV2; [1]): 100% | IC50 (MERS-CoV): 9.5 µM | IC50 (SARS-CoV): 13 µM

CCN(CC)CCCC(C)Nc1ccnc2cc(Cl)ccc12 (stereo not shown) [chloroquine]
IC50 (2019-nCoV): 1.13 µM
